The source of these data is article PMC7799364, “Dual inhibition of the terminal oxidases eradicates antibiotic‐tolerant Mycobacterium tuberculosis” (EMBO Molecular Medicine, 2020).

Assay [1] concerns the target T1, cytochrome bd oxidase (Cyt-bd) (Mycolicibacterium smegmatis, UniProt A0QXA8).
T1 construct: gene MSMEG_3233; native enzyme in inverted-membrane vesicles of M. smegmatis ΔqcrCAB; with CydB
T1 sequence (A0QXA8 1-487): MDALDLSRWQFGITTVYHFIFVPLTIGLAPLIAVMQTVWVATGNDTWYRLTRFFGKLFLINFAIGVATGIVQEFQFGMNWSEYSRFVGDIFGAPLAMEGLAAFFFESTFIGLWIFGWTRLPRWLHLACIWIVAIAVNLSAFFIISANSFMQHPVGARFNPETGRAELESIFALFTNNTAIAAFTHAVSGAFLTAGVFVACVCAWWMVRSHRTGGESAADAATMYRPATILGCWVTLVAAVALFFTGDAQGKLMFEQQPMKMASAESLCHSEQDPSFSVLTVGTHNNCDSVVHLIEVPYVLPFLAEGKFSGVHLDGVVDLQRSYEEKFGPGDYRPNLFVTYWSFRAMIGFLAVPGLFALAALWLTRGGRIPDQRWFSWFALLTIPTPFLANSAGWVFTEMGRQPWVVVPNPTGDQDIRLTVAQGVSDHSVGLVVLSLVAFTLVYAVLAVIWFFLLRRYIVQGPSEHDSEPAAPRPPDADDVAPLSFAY
T1 sequence (A0QXA7 1-350 partner): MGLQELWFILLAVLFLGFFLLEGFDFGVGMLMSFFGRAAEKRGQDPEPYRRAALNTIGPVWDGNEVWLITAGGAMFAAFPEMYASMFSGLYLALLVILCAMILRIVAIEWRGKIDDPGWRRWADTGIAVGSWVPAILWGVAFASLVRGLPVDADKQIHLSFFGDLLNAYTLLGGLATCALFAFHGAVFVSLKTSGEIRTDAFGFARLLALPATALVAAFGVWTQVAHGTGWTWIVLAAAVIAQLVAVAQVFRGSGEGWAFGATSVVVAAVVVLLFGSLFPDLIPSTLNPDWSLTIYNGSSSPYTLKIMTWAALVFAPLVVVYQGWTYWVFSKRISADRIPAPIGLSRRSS
As to the kind of experiment: reduced minus oxidized heme difference spectra of NADH-energized ΔqcrCAB IMVs with […] compound. The format is cell-based.

The target of assay [2] is T2, cytochrome bcc (QcrB, cytochrome b subunit of cytochrome bcc:aa3) (Mycolicibacterium smegmatis, UniProt A0R052).
T2 construct: gene MSMEG_4263; native cytochrome bcc-aa3 supercomplex in wild-type inverted-membrane vesicles; with cytochrome bcc-aa3 supercomplex
The assay can be described thus: NADH-based heme difference spectra of wild-type IMVs with […] Q203; Q203 also inhibits OCR of ΔcydAB IMVs. The format is cell-based.

In the case of `FC(F)(F)c1ccc(Oc2ccc(Nc3ncnc4ccccc34)cc2)cc1` [ND-011992, N‐(4‐(4‐(trifluoromethyl)phenoxy)phenyl)quinazolin‐4‐amine], in assay [1], the “reduced minus oxidized heme difference spectra of NADH-energized ΔqcrCAB IMVs wi” value is “the compound selectively binds and affects electron transfer in the mycobacterial Cyt‐bd”.

In the case of `CCc1nc2ccc(Cl)cn2c1C(=O)NCc1ccc(N2CCC(c3ccc(OC(F)(F)F)cc3)CC2)cc1` [Q203], the “NADH-based heme difference spectra of wild-type IMVs with 7.5 μM Q203; Q203 also” value in assay [2] was “confirming drug binding and inhibition of the electron transfer within the cytochrome bcc complex”.
